Results taken from PubChem BioAssay AID1963983 (Molecular Pharmacology Branch, DTP, NCI, 2024).
Where “and” joins values, the source holds several entries; their conditions need not be identical. Equal values may be shown once.

System: 186277-243-T-J2-PDC multi-cell spheroid viability
Test: Anticancer human tumor 186277-243-T-J2-PDC patient-derived colon adenocarcinoma cell line growth inhibition [PI3K]
Details: for viability, T/C: stronger effect = lower value
Summary of the method: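 Complex 3D spheroids (cancer cells + endothelial HUVEC + mesenchymal stem cells); drug pairs of targeted agent x inavolisib/alpelisib/duvelisib/copanlisib; half-log series from ~Cmax, max 10 microM if Cmax unknown; endpoint viability.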

[1] = curve of first compound, second compound 0.0316 µM
[2] = curve of first compound, second compound 0.1 µM
[3] = curve of first compound, second compound 0.316 µM
[4] = curve of first compound, second compound 1 µM
[5] = second compound 0.0316 µM, first compound 0.0316 µM
[6] = second compound 0.0316 µM, first compound 0.1 µM
[7] = second compound 0.0316 µM, first compound 0.316 µM
[8] = second compound 0.0316 µM, first compound 1 µM
[9] = second compound 0.0316 µM, first compound 3.16 µM
[10] = second compound 0.0316 µM, first compound 10 µM
[11] = second compound 0.1 µM, first compound 0.0316 µM
[12] = second compound 0.1 µM, first compound 0.1 µM
[13] = second compound 0.1 µM, first compound 0.316 µM
[14] = second compound 0.1 µM, first compound 1 µM
[15] = second compound 0.1 µM, first compound 3.16 µM
[16] = second compound 0.1 µM, first compound 10 µM
[17] = second compound 0.316 µM, first compound 0.0316 µM
[18] = second compound 0.316 µM, first compound 0.1 µM
[19] = second compound 0.316 µM, first compound 0.316 µM
[20] = second compound 0.316 µM, first compound 1 µM
[21] = second compound 0.316 µM, first compound 3.16 µM
[22] = second compound 0.316 µM, first compound 10 µM
[23] = second compound 1 µM, first compound 0.0316 µM
[24] = second compound 1 µM, first compound 0.1 µM
[25] = second compound 1 µM, first compound 0.316 µM
[26] = second compound 1 µM, first compound 1 µM
[27] = second compound 1 µM, first compound 3.16 µM
[28] = second compound 1 µM, first compound 10 µM
[29] = curve of first compound, second compound 0.00316 µM
[30] = curve of first compound, second compound 0.01 µM
[31] = second compound 0.00316 µM, first compound 0.0316 µM
[32] = second compound 0.00316 µM, first compound 0.1 µM
[33] = second compound 0.00316 µM, first compound 0.316 µM
[34] = second compound 0.00316 µM, first compound 1 µM
[35] = second compound 0.00316 µM, first compound 3.16 µM
[36] = second compound 0.00316 µM, first compound 10 µM
[37] = second compound 0.01 µM, first compound 0.0316 µM
[38] = second compound 0.01 µM, first compound 0.1 µM
[39] = second compound 0.01 µM, first compound 0.316 µM
[40] = second compound 0.01 µM, first compound 1 µM
[41] = second compound 0.01 µM, first compound 3.16 µM
[42] = second compound 0.01 µM, first compound 10 µM
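Further: spheroids exposed to compounds for seven days before viability reading.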
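Wherever viability, T/C is given: 100% = DMSO vehicle control viability.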

## C[C@@H](NC(=O)c1ncnc(N)c1Cl)c1ncc(C(=O)Nc2cc(C(F)(F)F)c(Cl)cn2)s1 + Cc1nc(NC(=O)N2CCCC2C(N)=O)sc1-c1ccnc(C(C)(C)C(F)(F)F)c1
[1]
  IC50: > 10000 nM
[2]
  IC50: > 10000 nM
[3]
  IC50: 8100 nM
[4]
  IC50: 4320 nM
Curve of first compound, second compound 3.16 µM
  IC50: 382 nM
Curve of first compound, second compound 10 µM
  IC50: < 31.6 nM
[5]
  viability, T/C: 87.8%
[6]
  viability, T/C: 78.3%
[7]
  viability, T/C: 101%
[8]
  viability, T/C: 99.5%
[9]
  viability, T/C: 102%
[10]
  viability, T/C: 78.4%
[11]
  viability, T/C: 92.9%
[12]
  viability, T/C: 90.8%
[13]
  viability, T/C: 93.9%
[14]
  viability, T/C: 108%
[15]
  viability, T/C: 99.2%
[16]
  viability, T/C: 72%
[17]
  viability, T/C: 104%
[18]
  viability, T/C: 107%
[19]
  viability, T/C: 105%
[20]
  viability, T/C: 88.1%
[21]
  viability, T/C: 85.8%
[22]
  viability, T/C: 42.1%
[23]
  viability, T/C: 103%
[24]
  viability, T/C: 88.5%
[25]
  viability, T/C: 102%
[26]
  viability, T/C: 91.2%
[27]
  viability, T/C: 62.8%
[28]
  viability, T/C: 15.7%
Second compound 3.16 µM, first compound 0.0316 µM
  viability, T/C: 77.8%
Second compound 3.16 µM, first compound 0.1 µM
  viability, T/C: 65.8%
Second compound 3.16 µM, first compound 0.316 µM
  viability, T/C: 54.9%
Second compound 3.16 µM, first compound 1 µM
  viability, T/C: 33.3%
Second compound 3.16 µM, first compound 3.16 µM
  viability, T/C: 12.9%
Second compound 3.16 µM, first compound 10 µM
  viability, T/C: 6%
Second compound 10 µM, first compound 0.0316 µM
  viability, T/C: 18.7%
Second compound 10 µM, first compound 0.1 µM
  viability, T/C: 18.9%
Second compound 10 µM, first compound 0.316 µM
  viability, T/C: 14.2%
Second compound 10 µM, first compound 1 µM
  viability, T/C: 4.89%
Second compound 10 µM, first compound 3.16 µM
  viability, T/C: 5.43%
Second compound 10 µM, first compound 10 µM
  viability, T/C: 0.25%

## CC(Cn1ccc(-c2ccc(C#N)c(Cl)c2)n1)NC(=O)c1cc(C(C)O)[nH]n1 (stereo unspecified) + COc1c(OCCCN2CCOCC2)ccc2c3n(c(=NC(=O)c4cnc(N)nc4)nc12)CCN3
[29]
  IC50: > 10000 nM
[30]
  IC50: > 10000 nM
[1]
  IC50: > 10000 nM
[2]
  IC50: < 31.6 nM
[3]
  IC50: < 31.6 nM
[4]
  IC50: < 31.6 nM
[31]
  viability, T/C: 94.2%
[32]
  viability, T/C: 92.1%
[33]
  viability, T/C: 101%
[34]
  viability, T/C: 105%
[35]
  viability, T/C: 116%
[36]
  viability, T/C: 86.9%
[37]
  viability, T/C: 99.2%
[38]
  viability, T/C: 100%
[39]
  viability, T/C: 101%
[40]
  viability, T/C: 108%
[41]
  viability, T/C: 93.3%
[42]
  viability, T/C: 90.1%
[5]
  viability, T/C: 74.7%
[6]
  viability, T/C: 74.9%
[7]
  viability, T/C: 69.2%
[8]
  viability, T/C: 70.9%
[9]
  viability, T/C: 75.5%
[10]
  viability, T/C: 58%
[11]
  viability, T/C: 16.7%
[12]
  viability, T/C: 17.3%
[13]
  viability, T/C: 17.4%
[14]
  viability, T/C: 15.9%
[15]
  viability, T/C: 19%
[16]
  viability, T/C: 17%
[17]
  viability, T/C: 6.31%
[18]
  viability, T/C: 6.68%
[19]
  viability, T/C: 3.61%
[20]
  viability, T/C: 6.24%
[21]
  viability, T/C: 6.1%
[22]
  viability, T/C: 4.81%
[23]
  viability, T/C: 3.61%
[24]
  viability, T/C: 3.8%
[25]
  viability, T/C: 2.93%
[26]
  viability, T/C: 2.25%
[27]
  viability, T/C: 3.36%
[28]
  viability, T/C: 2.45%

## Cn1nccc1Nc1nccc(-c2ccn(C(CO)c3ccc(Cl)c(F)c3)c(=O)c2)n1 (stereo unspecified) + COc1c(OCCCN2CCOCC2)ccc2c3n(c(=NC(=O)c4cnc(N)nc4)nc12)CCN3
[29]
  IC50: 1080 nM
[30]
  IC50: 502 nM
[1]
  IC50: < 31.6 nM
[2]
  IC50: < 31.6 nM
[3]
  IC50: < 31.6 nM
[4]
  IC50: < 31.6 nM
[31]
  viability, T/C: 109%
[32]
  viability, T/C: 107%
[33]
  viability, T/C: 89.2%
[34]
  viability, T/C: 51.6%
[35]
  viability, T/C: 24.3%
[36]
  viability, T/C: 15.1%
[37]
  viability, T/C: 86.3%
[38]
  viability, T/C: 94.6%
[39]
  viability, T/C: 57.7%
[40]
  viability, T/C: 32.6%
[41]
  viability, T/C: 14.7%
[42]
  viability, T/C: 5.46%
[5]
  viability, T/C: 47.2%
[6]
  viability, T/C: 34.6%
[7]
  viability, T/C: 18.4%
[8]
  viability, T/C: 10.2%
[9]
  viability, T/C: 6.79%
[10]
  viability, T/C: 8.22%
[11]
  viability, T/C: 9.72%
[12]
  viability, T/C: 8.17%
[13]
  viability, T/C: 6.57%
[14]
  viability, T/C: 2.91%
[15]
  viability, T/C: 2.2%
[16]
  viability, T/C: 1.76%
[17]
  viability, T/C: 3.78%
[18]
  viability, T/C: 6.01%
[19]
  viability, T/C: 1.78%
[20]
  viability, T/C: 1.08%
[21]
  viability, T/C: 1.43%
[22]
  viability, T/C: 0.17%
[23]
  viability, T/C: 2.33%
[24]
  viability, T/C: 2.25%
[25]
  viability, T/C: 0.33%
[26]
  viability, T/C: 0.28%
[27]
  viability, T/C: 0.15%
[28]
  viability, T/C: 0.27%

## CC(=O)c1c(C)c2cnc(Nc3ccc(N4CCNCC4)cn3)nc2n(C2CCCC2)c1=O
Compound 0.000316 µM
  viability, T/C: 97.1% [middle of 4 runs]
Compound 0.001 µM
  viability, T/C: 91.1% [middle of 4 runs]
Compound 0.00316 µM
  viability, T/C: 91.5% and 103% and 102% (2×)
Compound 0.01 µM
  viability, T/C: 105% [middle of 4 runs]
Curve of compound
  IC50: > 100 nM
